Experimental data as given in patent publication US20240124454A1, “TRICYCLIC COMPOUND AND USE THEREOF” (NANJING ZAIMING PHARMACEUTICAL CO., LTD., priority 2020, published 2024).
Like-named read-outs stand apart in the source and are kept apart here.

What was measured:
[1] = target: MAT2A (Homo sapiens (Human), UniProt P31153); test: MAT2A biochemical test (inorganic phosphate colorimetric, PiColorLock); settings: read-out: MAT2A inhibitory Activity IC50
How it was run: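 Compounds tested from 10 μM top concentration in 3-fold dilutions, preincubated 120 min at room temperature with MAT2A ([…] final) in Tris/KCl/MgCl2/EDTA/BSA buffer. Reaction started with […] L-methionine and 400 μM ATP, run 90 min at room temperature; phosphate read by PiColorLock after 30 min. IC50 fitted from % inhibition versus no-enzyme and DMSO controls.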

[2] = Metabolic stability in mouse liver microsomes; format: in vitro ADME; settings: 1 μM compound, 0.5 mg/mL microsome, NADPH; for half-life at 1 μM: CD-1, mouse, liver microsomes, pH 7.4, read-out: Mouse liver microsome stability t1/2
Procedure: Test Example 4. Determination of Metabolic Stability of Compound of the Present Application in Liver Microsomes
The metabolic stability of the compound of the present application in liver microsomes was determined using the following method.
I. Experimental materials and instruments • 1. Human liver microsome (Corning 452117), beagle dog liver microsome (XENOTECH D1000), SD rat liver microsome (XENOTECH R1000), and CD-i mouse liver microsome (XENOTECH M1000) • 2. Na2HPO4 (Tianjin Guangfu Fine Chemical Research Institute 20180130) • 3. KH2PO4 (Tianjin Guangfu Fine Chemical Research Institute 20180920) • 4. MgCl2 (Tianjin Guangfu Fine Chemical Research Institute 20191216) • 5. NADPH (Solarbio 1216C022) • 6. Positive control compound verapamil (Sigma MKBV4993V) • 7. AB Sciex API4000 liquid chromatography-mass spectrometry system
1. Preparation of 100 mMV phosphate-buffered saline (PBS): 7.098 g Na2HPO4 was weighed. 500 mL pure water was added. The mixture was dissolved by sonication to give solution A. 3.400 g KH2PO4 was weighed. 250 mL pure water was added. The mixture was dissolved by sonication to give solution B. The solution A was placed in a stirrer, and the solution B was slowly added until the pH reached 7.4, so that the 100 mM PBS buffer was prepared.
2. Preparation of reaction system
The reaction system was prepared as follows:
3. The reaction system was pre-incubated in a 37° C. water bath for 10 min. 40 μL of 10 mM NADPH solution (NADPH was dissolved by 100 mM phosphate-buffered saline) was added to the reaction system with a final concentration of NADPH being 1 mM. A negative control was made by replacing the NADPH solution with 40 μL phosphate-buffered saline. The negative control was used to exclude the effect of chemical stability of the compound itself.
4. The reaction was initiated by adding 4 μL of 100 μM of the compound of the present application and verapamil, the positive control compound, to the reaction system with a final concentration of the compound being 1 μM.
5. After being uniformly mixed in a vortex oscillator, 50 μL incubation sample was respectively taken out at 0.5, 15, 30, 45, and 60 min, and the reaction was stopped by 200 μL glacial acetonitrile containing an internal standard. The sample was centrifuged at 3220 g for 45 min. 90 μL of the supernatant was transferred to a feeding plate after the centrifugation was completed, and 90 μL ultrapure water was added. The mixture was well mixed for LC-MS/MS analysis.
All data were calculated by Microsoft Excel software. The peak area was detected through an extracted ion chromatogram. The in vitro half-life (t1/2) of the compound was determined by linear fitting of the natural logarithm of compound elimination percentage over time.
In vitro half-life (t1/2) was calculated by the slope: […]
The in vitro intrinsic clearance (in μL/min/mg protein) was calculated using the following formula:
in vitro CLint=k×volume of incubation (μL)/amount of proteins (mg)
CLint was intrinsic clearance; k was an elimination rate constant; volume of incubation was the incubation volume (μL); amount of proteins was the amount of protein (mg)

MAT2A, sequence (P31153 whole entry): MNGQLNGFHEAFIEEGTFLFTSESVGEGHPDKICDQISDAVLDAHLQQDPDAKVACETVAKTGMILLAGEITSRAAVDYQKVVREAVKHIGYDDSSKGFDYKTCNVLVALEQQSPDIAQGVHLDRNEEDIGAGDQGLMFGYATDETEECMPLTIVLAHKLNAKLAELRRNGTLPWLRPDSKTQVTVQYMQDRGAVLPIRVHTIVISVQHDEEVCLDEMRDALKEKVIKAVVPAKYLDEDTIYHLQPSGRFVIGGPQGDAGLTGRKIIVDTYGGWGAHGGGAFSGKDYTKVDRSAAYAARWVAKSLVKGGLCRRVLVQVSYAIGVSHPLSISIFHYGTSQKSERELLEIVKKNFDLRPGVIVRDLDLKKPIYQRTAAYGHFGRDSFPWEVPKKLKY

SMILES | IC50 ([1]; class symbols) [nM] | IC50 ([1]; numeric values) [nM] | half-life at 1 μM [2] [h] | Mouse liver microsome stability t1/2 [2] [h]
Cc1ncccc1-n1c(=O)c2ncn(C)c2c2ccc(C(F)(F)F)nc21 (atropisomer, axis not shown) [Compound 20, 1-methyl-5-(2-methylpyridin-3-yl)-7-(trifluoromethyl)-1,5-dihydro-4H-imidazo[4,5-c][1,8]naphthyridin-4-one] | < 100 | 54.9 | > 5 | 
Cn1cnc2c(=O)n(-c3cccc(F)c3Cl)c3nc(C(F)(F)F)ccc3c21 (atropisomer, axis not shown) [Compound 25, 5-(2-chloro-3-fluorophenyl)-1-methyl-7-(trifluoromethyl)-1,5-dihydro-4H-imidazo[4,5-c][1,8]naphthyridin-4-one] | < 100 | 48 | 4.78 | 
Cn1cnc2c(=O)n(-c3cccc(F)c3Cl)c3nc(C(F)(F)F)ccc3c21 (single isomer, unassigned) [Compound 25-P2, 5-(2-chloro-3-fluorophenyl)-1-methyl-7-(trifluoromethyl)-1,5-dihydro-4H-imidazo[4,5-c][1,8]naphthyridin-4-one] | < 100 | 20.6 | > 5 | 
Cn1cnc2c(=O)n(-c3cccnc3C(F)(F)F)c3nc(C(F)(F)F)ccc3c21 (single isomer, unassigned) [Compound 41-P2, 1-methyl-7-(trifluoromethyl)-5-(2-(trifluoromethyl)pyridin-3-yl)-1,5-dihydro-4H-imidazo[4,5-c][1,8]naphthyridin-4-one] | < 100 | 22.3 | > 5 | 
Cn1cnc2c(=O)n(-c3cccnc3C3CC3)c3nc(C(F)(F)F)ccc3c21 (single isomer, unassigned) [Compound 42-P2, 5-(2-cyclopropylpyridin-3-yl)-1-methyl-7-(trifluoromethyl)-1,5-dihydro-4H-imidazo[4,5-c][1,8]naphthyridin-4-one] | < 100 | 20.3 | 1.86 | 
Cn1cnc2c(=O)n(-c3cccnc3C3CC3)c3cc(C(F)(F)F)ccc3c21 (single isomer, unassigned) [Compound 48-P2, 5-(2-cyclopropylpyridin-3-yl)-1-methyl-7-(trifluoromethyl)-1,5-dihydro-4H-imidazo[4,5-c]quinolin-4-one] | < 100 | 21.4 | > 5 | 
Cn1cnc2c(=O)n(-c3cccnc3C3CC3)c3cc(Cl)ccc3c21 (single isomer, unassigned) [Compound 49-P2, 7-chloro-5-(2-cyclopropylpyridin-3-yl)-1-methyl-1,5-dihydro-4H-imidazo[4,5-c]quinolin-4-one] | < 100 | 18.7 | > 5 | 
O=c1c2ncoc2c2ccc(C(F)(F)F)nc2n1-c1cccnc1C1CC1 (single isomer, unassigned) [Compound 81-P2, 5-(2-cyclopropylpyridin-3-yl)-7-(trifluoromethyl)oxazolo[4,5-c][1,8]naphthyridin-4(5H)-one] | < 100 | 36.2 |  | 
Cn1cnc2c(=O)n(-c3cccc(F)c3Cl)c3cc(Cl)ccc3c21 [Compound 39, 7-chloro-5-(2-chloro-3-fluorophenyl)-1-methyl-1,5-dihydro-4H-imidazo[4,5-c]quinolin-4-one] | < 100 | 60.4 |  | >5
Cc1ncccc1-n1c(=O)c2ncoc2c2ccc(C(F)(F)F)nc21 [Compound 40, 5-(2-methylpyridin-3-yl)-7-(trifluoromethyl)oxazolo[4,5-c][1,8]naphthyridin-4(5H)-one] | < 100 | 43 | > 5 | 
Cc1ncccc1-n1c(=O)c2ncn(C)c2c2ccc(C(F)(F)F)cc21 [Compound 45, 1-methyl-5-(2-methylpyridin-3-yl)-7-(trifluoromethyl)-1,5-dihydro-4H-imidazo[4,5-c]quinolin-4-one] | < 100 | 47 | > 5 | 
